# Measurements: patent US7067524B2, “Substituted phenyl naphthalenes as estrogenic agents” (Wyeth, priority 2001, dated 2006)
# Where two headings read alike, the source gives them in different places.
# Assays:
# [1] = system: Sexually immature 129 SvE mice; experiment: Mouse uterotrophic test procedure (Procedure 2); type: in vivo; conditions: 50 mg/kg/day sc, days 22-25
# [2] = system: Sexually immature Sprague-Dawley rats; experiment: Rat uterotrophic test procedure (Procedure 1); type: in vivo
# [3] = system: Progesterone receptor mRNA; experiment: Progesterone receptor mRNA regulation in the preoptic area of the rat brain; type: in vivo; conditions: 10 mg/kg
# HLA-B27 rats [4] = conditions: for Stool score (group's average score): 2=soft stool, 1=normal stool
# Lewis rats [5] = experiment: Lewis rat adjuvant-induced arthritis, inhibition protocol; type: in vivo
# HLA-B27 rats [6] = conditions: for Joint inflammation score: 10 mg/kg orally once per day
# casein kinase II mRNA = experiment: Rat mammotrophic assay (mammary end bud test procedure); type: in vivo; conditions: ovariectomized rats, 20 mg/kg sc 6 days, with progesterone 30 mg/kg
# Lewis rats [7] = experiment: Lewis rat adjuvant-induced arthritis, treatment protocol; type: in vivo; conditions: for Joint inflammation score: 10 mg/kg sc daily from Day 8 after adjuvant
# [8] = colon histological score, 10 mg/kg orally for 46 days
# [9] = joint histology, 10 mg/kg orally for 46 days
# [10] = Mankin scores, tarsal joints, 10 mg/kg, mean ± SD
# [11] = synovitis histology, tarsal joints, 10 mg/kg, mean ± SD
structure (smiles),measurement,setting,value
"N#Cc1cc(-c2ccc(O)c(F)c2)cc2ccc(O)cc12 [Example 1av, 3-(3-Fluoro-4-hydroxyphenyl)-7-hydroxy-1-naphthonitrile]",mean uterine weight (mg) ± SEM,[1],12.6 ± 0.8 mg
same,mean uterine weight (mg) ± SEM,[2]; 2 mg/rat/day coadministered with 17α-ethinyl-17β-estradiol 0.06 μg/rat/day (antagonist mode),81.9 ± 4.2 mg
same,mean uterine weight (mg) ± SEM,"[2]; 2 mg/rat/day sc, days 19-21",23.3 ± 1.3 mg
same,Progesterone receptor mRNA (arbitrary units; mean ± stdev),[3],33.7 ± 20.6 arbitrary units
same,Time until stool character normalized,HLA-B27 rats [4]; 10 mg/kg orally daily,≤ 21 days
same,Stool score (group's average score),"HLA-B27 rats [4]; 10 mg/kg orally daily, Day 1, 3=diarrhea",2.75
same,Stool score (group's average score),"HLA-B27 rats [4]; 10 mg/kg orally daily, Day 2, 3=diarrhea",2.5
same,Stool score (group's average score),"HLA-B27 rats [4]; 10 mg/kg orally daily, Day 3, 3=diarrhea",2.25
same,Stool score (group's average score),"HLA-B27 rats [4]; 10 mg/kg orally daily, Day 4, 3=diarrhea",2.5
same,Stool score (group's average score),"HLA-B27 rats [4]; 10 mg/kg orally daily, Day 5, 3=diarrhea",2.25
same,Stool score (group's average score),"HLA-B27 rats [4]; 10 mg/kg orally daily, Day 6, 3=diarrhea",2.5
same,Stool score (group's average score),"HLA-B27 rats [4]; 10 mg/kg orally daily, Day 7, 3=diarrhea",2.5
same,Stool score (group's average score),"HLA-B27 rats [4]; 10 mg/kg orally daily, Day 8, 3=diarrhea",2
same,Stool score (group's average score),"HLA-B27 rats [4]; 10 mg/kg orally daily, Day 9, 3=diarrhea",2
same,Stool score (group's average score),"HLA-B27 rats [4]; 10 mg/kg orally daily, Day 10, 3=diarrhea",1.5
same,Stool score (group's average score),"HLA-B27 rats [4]; 10 mg/kg orally daily, Day 11, 3=diarrhea",1.5
same,Stool score (group's average score),"HLA-B27 rats [4]; 10 mg/kg orally daily, Day 12, 3=diarrhea",1.5
same,Stool score (group's average score),"HLA-B27 rats [4]; 10 mg/kg orally daily, Day 13, 3=diarrhea",1.75
same,Stool score (group's average score),"HLA-B27 rats [4]; 10 mg/kg orally daily, Day 14, 3=diarrhea",1.75
same,Stool score (group's average score),"HLA-B27 rats [4]; 10 mg/kg orally daily, Day 15, 3=diarrhea",1.5
same,Stool score (group's average score),"HLA-B27 rats [4]; 10 mg/kg orally daily, Day 16, 3=diarrhea",1.5
same,Stool score (group's average score),"HLA-B27 rats [4]; 10 mg/kg orally daily, Day 17, 3=diarrhea",1.25
same,Stool score (group's average score),"HLA-B27 rats [4]; 10 mg/kg orally daily, Day 18, 3=diarrhea",1.25
same,Stool score (group's average score),"HLA-B27 rats [4]; 10 mg/kg orally daily, Day 19, 3=diarrhea",1.25
same,Stool score (group's average score),"HLA-B27 rats [4]; 10 mg/kg orally daily, Day 20, 3=diarrhea",1.25
same,Stool score (group's average score),"HLA-B27 rats [4]; 10 mg/kg orally daily, Day 21, 3=diarrhea",1.25
same,Stool score (group's average score),"HLA-B27 rats [4]; 10 mg/kg orally daily, Day 22, 3=diarrhea",1
same,Stool score (group's average score),"HLA-B27 rats [4]; 10 mg/kg orally daily, Day 23, 3=diarrhea",1
same,Stool score (group's average score),"HLA-B27 rats [4]; 10 mg/kg orally daily, Day 24, 3=diarrhea",1
same,Stool score (group's average score),"HLA-B27 rats [4]; 10 mg/kg orally daily, Day 25, 3=diarrhea",1
same,Fibrosis (0–2),HLA-B27 rats [4]; [8],0.07 ± 0.13
same,Inflammation (0–3),HLA-B27 rats [4]; [8],1.13 ± 0.43
same,Lesion depth (0–2),HLA-B27 rats [4]; [8],0.38 ± 0.43
same,Total score,HLA-B27 rats [4]; [8],2.00 ± 1.14
same,Ulceration (0–2),HLA-B27 rats [4]; [8],0.44 ± 0.43
same,Joint inflammation score,"Lewis rats [5]; sc daily from Day 1, Day 1, maximal score 12",0.00
same,Joint inflammation score,"Lewis rats [5]; sc daily from Day 1, Day 2, maximal score 12",0.00
same,Joint inflammation score,"Lewis rats [5]; sc daily from Day 1, Day 3, maximal score 12",2.66
same,Joint inflammation score,"Lewis rats [5]; sc daily from Day 1, Day 4, maximal score 12",1.83
same,Joint inflammation score,"Lewis rats [5]; sc daily from Day 1, Day 5, maximal score 12",2.66
same,Joint inflammation score,"Lewis rats [5]; sc daily from Day 1, Day 6, maximal score 12",2.16
same,Joint inflammation score,"Lewis rats [5]; sc daily from Day 1, Day 7, maximal score 12",2.00
same,Joint inflammation score,"Lewis rats [5]; sc daily from Day 1, Day 8, maximal score 12",1.66
same,Joint inflammation score,"Lewis rats [5]; sc daily from Day 1, Day 9, maximal score 12",2.00
same,Joint inflammation score,"Lewis rats [5]; sc daily from Day 1, Day 10, maximal score 12",2.00
same,Joint inflammation score,"Lewis rats [5]; sc daily from Day 1, Day 11, maximal score 12",1.66
same,Joint inflammation score,"Lewis rats [5]; sc daily from Day 1, Day 12, maximal score 12",1.66
same,Joint inflammation score,"Lewis rats [5]; sc daily from Day 1, Day 13, maximal score 12",2.16
same,Joint inflammation score,"Lewis rats [5]; sc daily from Day 1, Day 14, maximal score 12",2.00
same,Joint inflammation score,"Lewis rats [5]; sc daily from Day 1, Day 15, maximal score 12",2.00
same,Joint inflammation score,"Lewis rats [5]; sc daily from Day 1, Day 16, maximal score 12",1.00
same,Joint inflammation score,"Lewis rats [5]; sc daily from Day 1, Day 17, maximal score 12",1.33
same,Joint inflammation score,HLA-B27 rats [6]; Day 29,0.5
same,Joint inflammation score,HLA-B27 rats [6]; Day 30,0.5
same,Joint inflammation score,HLA-B27 rats [6]; Day 31,0.5
same,Joint inflammation score,HLA-B27 rats [6]; Day 32,1
same,Joint inflammation score,HLA-B27 rats [6]; Day 33,1.75
same,Joint inflammation score,HLA-B27 rats [6]; Day 34,1.5
same,Joint inflammation score,HLA-B27 rats [6]; Day 35,1
same,Joint inflammation score,HLA-B27 rats [6]; Day 36,1.75
same,Joint inflammation score,HLA-B27 rats [6]; Day 37,1.75
same,Joint inflammation score,HLA-B27 rats [6]; Day 38,1.5
same,Joint inflammation score,HLA-B27 rats [6]; Day 39,0.75
same,Joint inflammation score,HLA-B27 rats [6]; Day 40,0.75
same,Joint inflammation score,HLA-B27 rats [6]; Day 41,0.5
same,Joint inflammation score,HLA-B27 rats [6]; Day 42,1.5
same,Joint inflammation score,HLA-B27 rats [6]; Day 43,1.25
same,Joint inflammation score,HLA-B27 rats [6]; Day 44,1.75
same,Joint inflammation score,HLA-B27 rats [6]; Day 45,1.25
same,Joint inflammation score,HLA-B27 rats [6]; Day 46,0.75
same,Mankin score (mean ± SD),HLA-B27 rats [6]; [9],4.5 ± 1.8
same,Synovitis score (mean ± SD),HLA-B27 rats [6]; [9],5.0 ± 2.5
same,Casein kinase II mRNA/18S rRNA (mean ± SEM),casein kinase II mRNA,1.06 ± 0.17
same,Joint inflammation score,"Lewis rats [7]; Day 1, maximal score 12",11.33
same,Joint inflammation score,"Lewis rats [7]; Day 2, maximal score 12",10.83
same,Joint inflammation score,"Lewis rats [7]; Day 3, maximal score 12",9.33
same,Joint inflammation score,"Lewis rats [7]; Day 4, maximal score 12",8.00
same,Joint inflammation score,"Lewis rats [7]; Day 5, maximal score 12",5.83
same,Joint inflammation score,"Lewis rats [7]; Day 6, maximal score 12",3.33
same,Joint inflammation score,"Lewis rats [7]; Day 7, maximal score 12",3.00
same,Joint inflammation score,"Lewis rats [7]; Day 8, maximal score 12",2.50
same,Joint inflammation score,"Lewis rats [7]; Day 9, maximal score 12",2.50
same,Joint inflammation score,"Lewis rats [7]; Day 10, maximal score 12",2.50
same,Joint inflammation score,"Lewis rats [7]; Day 11, maximal score 12",2.50
same,Joint inflammation score,"Lewis rats [7]; Day 12, maximal score 12",2.50
same,Joint inflammation score,"Lewis rats [7]; Day 13, maximal score 12",2.50
same,Joint inflammation score,"Lewis rats [7]; Day 14, maximal score 12",2.50
same,Joint inflammation score,"Lewis rats [7]; Day 15, maximal score 12",2.00
same,Joint inflammation score,"Lewis rats [7]; Day 16, maximal score 12",1.33
same,Joint inflammation score,"Lewis rats [7]; Day 17, maximal score 12",1.00
same,Cartilage Cells (0–3),Lewis rats [7]; [10],0.75 ± 0.42
same,Cartilage Structure (0–6),Lewis rats [7]; [10],1.83 ± 0.68
same,Saffranin-O/Fast Green Staining (0–4),Lewis rats [7]; [10],1.25 ± 0.52
same,Tidemark Integrity (0–1),Lewis rats [7]; [10],0
same,Total Mankin Score (0–14),Lewis rats [7]; [10],3.83 ± 1.21
same,Fibroplasia (0–3),Lewis rats [7]; [11],0.75 ± 0.42
same,Inflammatory Cells (0–3),Lewis rats [7]; [11],1.25 ± 0.42
same,Pannus (0–1),Lewis rats [7]; [11],0.33 ± 0.61
same,Synovial Structure (0–3),Lewis rats [7]; [11],1.58 ± 0.38
same,Total Synovitis Score (0–10),Lewis rats [7]; [11],3.83 ± 0.93
